Results taken from the RepoRT retention time repository (doi:10.1016/j.scitotenv.2015.08.078).
Structures can show the parent of a compound that is named as a salt.

assay: RP, Waters ACQUITY UPLC BEH C18, 100 × 2.1 mm, 1.7 µm, 0.3 mL/min, estimated dead time 0.73 min; A: water + 0.1% formic acid, pH 3; B: methanol + 0.1% formic acid, pH 3; gradient (min/%B) 0/10 14/90 16/90 18/10; settings: stereoisomer not certain

Structure (SMILES) | LC retention time
CC(C)(C)C(O)C(Oc1ccc(-c2ccccc2)cc1)n1cncn1 (stereo not drawn) [Bitertanol] | 12 min
O=C(Nc1ccccc1-c1ccc(Cl)cc1)c1cccnc1Cl [Boscalid] | 10.7 min
CCC(C)n1c(=O)[nH]c(C)c(Br)c1=O (stereo not drawn) [Bromacil] | 7.96 min
CC(C)(C)NCC(O)c1cc(Br)c(N)c(Br)c1 (stereo not drawn) [Brombuterol] | 5.9 min
CN(Cc1cc(Br)cc(Br)c1N)C1CCCCC1 [Bromhexine] | 14.1 min
Clc1ccc(C2(Cn3cncn3)CC(Br)CO2)c(Cl)c1 (stereo not drawn) [Bromuconazole I] | 10.6 min
CCCC1OC2CC3C4CCC5=CC(=O)C=CC5(C)C4C(O)CC3(C)C2(C(=O)CO)O1 (stereo not drawn) [Budesonide] | 10.9 min
COc1cc(OC)c(C(=O)CCCN2CCCC2)c(OC)c1 [Buflomedil HCl] | 5 min
CCCCc1c(C)nc(NCC)nc1OS(=O)(=O)N(C)C [Bupirimate] | 11.2 min
CC(C)N1C(=O)N(c2ccccc2)CSC1=NC(C)(C)C [Buprofezin] | 13.1 min
CCC(C)Nc1c([N+](=O)[O-])cc(C(C)(C)C)cc1[N+](=O)[O-] (stereo not drawn) [Butralin] | 13.5 min
CCOP(=O)(SC(C)CC)SC(C)CC (stereo not drawn) [Cadusafos] | 12.2 min
CC(C)NCC(O)COc1cccc2[nH]c3ccccc3c12 (stereo not drawn) [Carazolol] | 6.24 min
CNC(=O)Oc1cccc2ccccc12 [Carbaryl] | 7.91 min
COC(=O)Nc1nc2ccccc2[nH]1 [Carbendazim] | 3.42 min
CNC(=O)Oc1cccc2c1OC(C)(C)C2O (stereo not drawn) [Carbofuran-3-OH] | 4.08 min
CNC(=O)Oc1cccc2c1OC(C)(C)C2 [Carbofuran] | 8.15 min
CC1=C(C(=O)Nc2ccccc2)SCCO1 [Carboxin] | 7.77 min
CCOC(=O)C(Cl)Cc1cc(-n2nc(C)n(C(F)F)c2=O)c(F)cc1Cl (stereo not drawn) [Carfentrazone-ethyl] | 11.4 min
NC(C(=O)NC1C(=O)N2C(C(=O)O)=C(Cl)CSC12)c1ccccc1 (stereo not drawn) [Cefaclor] | 4.02 min
CC1=C(C(=O)O)N2C(=O)C(NC(=O)C(N)c3ccc(O)cc3)C2SC1 (stereo not drawn) [Cefadroxil] | 4.91 min

Structure (SMILES) | LC retention time
CC1=C(C(=O)O)N2C(=O)C(NC(=O)C(N)c3ccccc3)C2SC1 (stereo not drawn) [Cefalexin] | 3.25 min
CON=C(C(=O)NC1C(=O)N2C(C(=O)O)=C(COC(C)=O)CSC12)c1csc(N)n1 (stereo not drawn) [Cefotaxime] | 4.41 min
CON=C(C(=O)NC1C(=O)N2C(C(=O)[O-])=C(C[n+]3cccc4c3CCCC4)CSC12)c1csc(N)n1 (stereo not drawn) [Cefquinome] | 3.4 min
CON=C(C(=O)NC1C(=O)N2C(C(=O)O)=C(COC(N)=O)CSC12)c1ccco1 (stereo not drawn) [Cefuroxime] | 9.51 min
O=C(NC(CO)C(O)c1ccc([N+](=O)[O-])cc1)C(Cl)Cl (stereo not drawn) [Chloramphenicol] | 5.3 min
CNC(=O)c1cc(Cl)cc(C)c1NC(=O)c1cc(Br)nn1-c1ncccc1Cl [Chlorantraniliprole] | 10.4 min
CON(C)C(=O)Nc1ccc(Br)c(Cl)c1 [Chlorbromuron] | 10.1 min
CCOP(=O)(OCC)OC(=CCl)c1ccc(Cl)cc1Cl [Chlorfenvinphos] | 12 min
O=C(NC(=O)c1c(F)cccc1F)Nc1cc(Cl)c(Oc2ncc(C(F)(F)F)cc2Cl)c(Cl)c1 [Chlorfluazuron] | 13.9 min
Nc1cnn(-c2ccccc2)c(=O)c1Cl [Chloridazon (Pyrazon)] | 4.82 min
CCOC(=O)c1ccccc1S(=O)(=O)NC(=O)Nc1nc(Cl)cc(OC)n1 [Chlorimuron ethyl] | 8.65 min
CCOP(=S)(OCC)Oc1nc(Cl)c(Cl)cc1Cl [Chloropyrifos] | 14.1 min
CN(C)CCC(c1ccc(Cl)cc1)c1ccccn1 (stereo not drawn) [Chlorpheniramine] | 7.27 min
CN(C)CCCN1c2ccccc2Sc2ccc(Cl)cc21 [Chlorpromazine] | 10.3 min
COP(=S)(OC)Oc1nc(Cl)c(Cl)cc1Cl [Chlorpyriphos-methyl] | 12.1 min
COc1nc(C)nc(NC(=O)NS(=O)(=O)c2ccccc2Cl)n1 [Chlorsulfuron] | 7.94 min
CC(C)(C)NCC(O)c1ccc(N)c(C#N)c1 (stereo not drawn) [Cimbuterol] | 2.78 min
CN=C(NC#N)NCCSCc1nc[nH]c1C [Cimetidine] | 2.28 min
COCCOc1ccccc1S(=O)(=O)NC(=O)Nc1nc(OC)nc(OC)n1 [Cinosulfuron] | 6.25 min
O=C(O)c1cn(C2CC2)c2cc(N3CCNCC3)c(F)cc2c1=O [Ciprofloxacin] | 3.93 min
CCC1OC(=O)C(C)C(OC2CC(C)(OC)C(O)C(C)O2)C(C)C(OC2OC(C)CC(N(C)C)C2O)C(C)(OC)CC(C)C(=O)C(C)C(O)C1(C)O (stereo not drawn) [Clarithromycin] | 10.5 min

Structure (SMILES) | LC retention time
CC(C)(C)NCC(O)c1cc(Cl)c(N)c(Cl)c1 (stereo not drawn) [Clenbuterol] | 5.15 min
CCC(C)(C)NCC(O)c1cc(Cl)c(N)c(Cl)c1 (stereo not drawn) [Clenpenterol] | 6.19 min
CC(C)NCC(O)c1cc(Cl)c(N)c(Cl)c1 (stereo not drawn) [Clenproperol] | 4.05 min
CCCC1CC(C(=O)NC(C(C)Cl)C2OC(SC)C(O)C(O)C2O)N(C)C1 (stereo not drawn) [Clindamycin] | 7.04 min
CCC(=O)OC1(C(=O)CCl)C(C)CC2C3CCC4=CC(=O)C=CC4(C)C3(F)C(O)CC21C (stereo not drawn) [Clobetasol propionate] | 11.4 min
C#CCOC(=O)C(C)Oc1ccc(Oc2ncc(Cl)cc2F)cc1 (stereo not drawn) [Clodinafop-propargyl] | 11.5 min
CC1(C)CON(Cc2ccccc2Cl)C1=O [Clomazone] | 9.54 min
CCCCCC(C)OC(=O)COc1ccc(Cl)c2cccnc12 (stereo not drawn) [Cloquintocet - mexyl] | 13 min
CNC(=N[N+](=O)[O-])NCc1cnc(Cl)s1 [Clothianidin] | 4.13 min
CCOC(=O)C1C(OC(=O)c2ccccc2)CC2CCC1N2C (stereo not drawn) [Cocaethylene] | 6.53 min
COC(=O)C1C(OC(=O)c2ccccc2)CC2CCC1N2C (stereo not drawn) [Cocaine] | 5.49 min
CC12CCC(=O)C=C1CCC1C2C(O)CC2(C)C(C(=O)CO)CCC12 (stereo not drawn) [Corticosterone] | 9.37 min
CC12CCC(=O)C=C1CCC1C2C(=O)CC2(C)C1CCC2(O)C(=O)CO (stereo not drawn) [Cortisone] | 8.13 min
CCOP(=S)(OCC)Oc1ccc2c(C)c(Cl)c(=O)oc2c1 [Coumaphos] | 12.4 min
CCNc1nc(Cl)nc(NC(C)(C)C#N)n1 [Cyanazine] | 7.05 min
CCOP(=S)(Oc1ccc(C#N)cc1)c1ccccc1 (stereo not drawn) [Cyanofenphos] | 11.7 min
CCSC(=O)N(CC)C1CCCCC1 [Cycloate] | 12.3 min
CCCC(=NOCC)C1=C(O)CC(C2CCCSC2)CC1=O (stereo not drawn) [Cycloxydime] | 11.3 min
CCNC(=O)NC(=O)C(C#N)=NOC [Cymoxanil] | 5.24 min
CC(C1CC1)C(O)(Cn1cncn1)c1ccc(Cl)cc1 (stereo not drawn) [Cyproconazole I] | 10.5 min
Cc1cc(C2CC2)nc(Nc2ccccc2)n1 [Cyprodinil] | 10.7 min
